The values that follow come from patent US20240002375A1, “2-(INDAZOL-5-YL)-6-(PIPERIDIN-4-YL)-1,7-NAPHTHYRIDINE DERIVATIVES AND RELATED COMPOUNDS AS MODULATORS FOR SPLICING NUCLEIC ACIDS AND FOR THE TRE” (REMIX THERAPEUTICS INC., priority 2020, published 2024).

What all share (format): cell-based
One assay relates to SMN2 CJ mRNA. Kind of assay: Gene panel canonical junction qPCR splicing assay, SMN2. The settings on record: Table 4, read-out: SMN2 IC50 (decrease in CJ mRNA levels). An outline of the steps:
(§1)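 A673 or K562 cells treated with compound; canonical-junction mRNA measured by RT-qPCR with junction-spanning primer/probe sets, normalized to GAPDH, GUSB or PPIA and DMSO (2^−ΔΔCt). IC50 for CJ decrease from 4-parameter logistic fit of percentage response.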

Another assay concerns HTT mRNA. Briefly: Splicing assay (RT-qPCR) of HTT mRNA alternative junction (AJ) and canonical junction (CJ). The note with it: A673 or K562 cells, 24 hours; for IC50: decrease in CJ mRNA, read-out: HTT CJ IC50; for AC50: increase in AJ mRNA, read-out: HTT AJ AC50. The gist of the method: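 A673 (adherent, 24 h pre-plating) or K562 cells treated 24 h at 37 °C with an 11-point 3-fold dilution series, top 10 uM, DMSO ≤0.25%. Lysates analysed by one-step RT-qPCR for HTT canonical (CJ) and alternative-exon (AJ) junctions, normalised to PPIA (A673) or GAPDH/GUSB (K562).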
For orientation: In qPCR the cycle at which signal appears reflects the starting amount.

Another assay relates to Target C CJ mRNA. Kind of assay: Gene panel canonical junction qPCR splicing assay, Target C. The note with it: Table 4, read-out: Target C IC50 (decrease in CJ mRNA levels). The gist of the method: as §1
The subject of the next assay is HTT CJ mRNA. Briefly: Gene panel canonical junction qPCR splicing assay, HTT. The settings on record: Table 4, read-out: HTT IC50 (decrease in CJ mRNA levels). An outline of the steps: as §1

As usually defined, the IC50 is the midpoint of a concentration-inhibition curve. What is called AC50 is the concentration giving half of the maximal activity seen. Consider `Cc1cn2nc(-c3ccc4nc(N5CCC(NC(C)(C)C)C5)ccc4n3)c(O)c2c(C)n1` (stereo not drawn) [Compound 203, 2-{6-[3-(tert-butylamino)pyrrolidin-1-yl]-1,5-naphthyridin-2-yl}-4,6-dimethylpyrazolo[1,5-a]pyrazin-3-ol], for which the IC50 in the assay with SMN2 CJ mRNA, in the assay on HTT mRNA, with Target C CJ mRNA and with HTT CJ mRNA was below 100 nM in each case. In addition, in the assay with HTT mRNA, the AC50 is below 100 nM.
With `Cn1cc2cc(-c3ccc4nc(C5CCNCC5)ccc4n3)c(C#N)cc2n1` [Compound 204, 2-methyl-5-[6-(piperidin-4-yl)-1,5-naphthyridin-2-yl]indazole-6-carbonitrile], the IC50 in the assay on SMN2 CJ mRNA is 100 to 1000 nM; with HTT mRNA it was 1000 to 10000 nM; in the assay with Target C CJ mRNA, above 10000 nM; with HTT CJ mRNA, 1000 to 10000 nM. Further, the AC50 in the assay with HTT mRNA was 1000 to 10000 nM.
As for `Cn1cc2nc(-c3ccc4nc(C5CCNCC5)ccc4n3)c(F)cc2n1` [Compound 205, 2-{6-fluoro-2-methylpyrazolo[4,3-b]pyridin-5-yl}-6-(piperidin-4-yl)-1,5-naphthyridine], the half-maximal inhibitory concentration (IC50) in the assay with SMN2 CJ mRNA, in the assay on HTT mRNA, in the assay with Target C CJ mRNA and in the assay with HTT CJ mRNA was 1000 to 10000 nM throughout. The AC50 in the assay with HTT mRNA fell in the range of 1000 to 10000 nM.
With `Cc1cn2cc(-c3ccc4nc(N5CCC(NC(C)(C)C)C5)ccc4n3)nc(C)c2n1` (stereo not drawn) [Compound 206], the concentration for half-maximal inhibition (IC50) with SMN2 CJ mRNA, with HTT mRNA, in the assay with Target C CJ mRNA and in the assay with HTT CJ mRNA was 1000 to 10000 nM throughout. The AC50 with HTT mRNA fell in the range of 1000 to 10000 nM.
Consider `Cn1cc2nc(-c3ccc4nc(N5CCC(NC(C)(C)C)C5)ccc4n3)c(F)cc2n1` (stereo not drawn) [Compound 207], for which the IC50 in the assay on SMN2 CJ mRNA, with HTT mRNA, in the assay on Target C CJ mRNA and in the assay with HTT CJ mRNA was 1000 to 10000 nM in each case. In addition, the AC50 with HTT mRNA lay in the range of 1000 to 10000 nM.
As to `Cc1nc(-c2ccc3nc(N4CCC(NC(C)(C)C)C4)ccc3n2)cc2cn(C)nc12` (stereo not drawn) [Compound 208], the IC50 in the assay on SMN2 CJ mRNA is 1000 to 10000 nM; in the assay on HTT mRNA it was above 10000 nM; in the assay on Target C CJ mRNA, above 10000 nM; with HTT CJ mRNA, above 10000 nM. Moreover, the AC50 in the assay with HTT mRNA is above 10000 nM.
For the compound `Cc1nc2cc(O)c(-c3ccc4nc(N5CC[C@H](NC(C)(C)C)C5)ccc4n3)cc2o1` [Compound 209], the IC50 in the assay on SMN2 CJ mRNA, in the assay on HTT mRNA, in the assay with Target C CJ mRNA and with HTT CJ mRNA was below 100 nM in each case. Further, in the assay on HTT mRNA, the AC50 is below 100 nM.
As to `Cc1nc2cc(O)c(-c3ccc4nc(N5CC[C@@H](NC(C)(C)C)C5)ccc4n3)cc2o1` [Compound 210], the IC50 in the assay on SMN2 CJ mRNA is below 100 nM; in the assay with HTT mRNA, below 100 nM; with Target C CJ mRNA, 1000 to 10000 nM; in the assay with HTT CJ mRNA, below 100 nM. The AC50 with HTT mRNA was below 100 nM.
Regarding `Cn1cc2cc(-c3cc4ccc(N5CCC(NC(C)(C)C)C5)nc4cn3)c(O)cc2n1` (stereo not drawn) [Compound 218, 5-{2-[3-(tert-butylamino)pyrrolidin-1-yl]-1,7-naphthyridin-6-yl}-2-methylindazol-6-ol], the IC50 with SMN2 CJ mRNA is 100 to 1000 nM; in the assay with HTT mRNA, above 10000 nM; with Target C CJ mRNA, above 10000 nM; in the assay on HTT CJ mRNA, above 10000 nM. In the assay on HTT mRNA, the AC50 was above 10000 nM.
Turning to `Cc1nc2cc(O)c(-c3ccc4nc(N5CCC(N)C5)ccc4n3)cc2o1` (stereo not drawn) [Compound 234, 6-[6-(3-aminopyrrolidin-1-yl)-1,5-naphthyridin-2-yl]-2-methyl-1,3-benzoxazol-5-ol], the IC50 was below 100 nM in the assay with SMN2 CJ mRNA, 100 to 1000 nM in the assay on HTT mRNA, 100 to 1000 nM in the assay with Target C CJ mRNA and 100 to 1000 nM with HTT CJ mRNA. For the same compound, the AC50 with HTT mRNA is below 100 nM.
Take `Cc1nc2c(C)c(O)c(-c3ccc4nc(N5CCC(NC6CCC6)C5)ccc4n3)cc2o1` (stereo not drawn) [Compound 235, 6-{6-[3-(cyclobutylamino)pyrrolidin-1-yl]-1,5-naphthyridin-2-yl}-2,4-dimethyl-1,3-benzoxazol-5-ol]: the IC50 with SMN2 CJ mRNA, in the assay on HTT mRNA, in the assay with Target C CJ mRNA and in the assay on HTT CJ mRNA was below 100 nM each time. The AC50 in the assay with HTT mRNA is below 100 nM.
On to `Cn1cc2cc(-c3ccc4nc(N5CCC(N)C5)ccc4n3)c(O)c(F)c2n1` (stereo not drawn) [Compound 238, 5-[6-(3-aminopyrrolidin-1-yl)-1,5-naphthyridin-2-yl]-7-fluoro-2-methylindazol-6-ol], for which the IC50 with SMN2 CJ mRNA, with HTT mRNA, in the assay on Target C CJ mRNA and in the assay on HTT CJ mRNA was below 100 nM each time. In addition, the concentration at half-maximal activity (AC50) with HTT mRNA is below 100 nM.
With `Cn1cc2cc(-c3ccc4cc(C5CCNCC5)ccc4n3)c(O)c(F)c2n1` [Compound 241, 7-fluoro-2-methyl-5-[6-(piperidin-4-yl)quinolin-2-yl]indazol-6-ol], the IC50 in the assay on SMN2 CJ mRNA, in the assay on HTT mRNA, in the assay on Target C CJ mRNA and in the assay on HTT CJ mRNA was below 100 nM each time. Moreover, the AC50 in the assay on HTT mRNA is below 100 nM.
In the case of `Cn1cc2cc(-c3ccc4nc(N5CC[C@@H](N[C@H]6C[C@H](F)C6)C5)ccc4n3)c(O)cc2n1` [Compound 246], the IC50 in the assay on SMN2 CJ mRNA, in the assay on HTT mRNA, in the assay on Target C CJ mRNA and in the assay on HTT CJ mRNA was below 100 nM in each case. Also, the AC50 in the assay with HTT mRNA is below 100 nM.
For the compound `Cn1cc2cc(-c3ccc4nc(N5CC[C@H](N[C@H]6C[C@H](F)C6)C5)ccc4n3)c(O)cc2n1` [Compound 247], the IC50 in the assay with SMN2 CJ mRNA is below 100 nM; with HTT mRNA, below 100 nM; with Target C CJ mRNA, 100 to 1000 nM; in the assay with HTT CJ mRNA it was below 100 nM. Moreover, the AC50 with HTT mRNA was in the range of 100 to 1000 nM.
